Measurements published in the OligoGym collection.
Several values for one entry are separate records, joined by “and”; a condition that tells them apart may be missing. Identical values can stand only once. After the bases stand the sugars from the 5' end (letter, count) and the backbone: PS all phosphorothioate, else s phosphorothioate and o phosphodiester by linkage. Methylation of C is not given here. e = 2'-O-(2-methoxyethyl) (MOE); k = constrained ethyl (cEt); d = 2'-deoxy (DNA)

Biological target: IRF4
Conditions: ASO

Sequence	target mRNA inhibition (SK-MEL-28, 4 µM)	target mRNA inhibition (MM.1R, 1 µM)	further results
GTATTTGTCGAGATCA (sugars k3 d10 k3, PS)	59%	–	–
GTCACCTGGCAACCAT (sugars k4 d8 k4, PS)	41%	–	–
GTCACGCAATGGCAAA (sugars k3 d10 k3, PS)	–	-2%	–
GTCCACTGAGTACAAA (sugars k3 d10 k3, PS)	13%	–	–
GTCCAGCTGGCTCCGC (sugars k3 d10 k3, PS)	53%	–	–
GTCCCCTCTACTTCAG (sugars k3 d10 k3, PS)	41%	–	–
GTCTACAGAACACAAG (sugars k3 d10 k3, PS)	24%	–	–
GTCTGAGTTGTACAGG (sugars k3 d10 k3, PS)	–	52% and 57%	–
GTGAAGCATCCTTTCC (sugars k3 d10 k3, PS)	63%	–	–
GTGAGATGCGGAGGTT (sugars k3 d10 k3, PS)	–	39%	target mRNA inhibition (MM.1R, 0.0625 µM): 14%; target mRNA inhibition (MM.1R, 0.25 µM): 12%; target mRNA inhibition (MM.1R, 4 µM): 66%
GTGATGTCAGGTTTTC (sugars e1 k2 d9 k2 e2, PS)	–	48%	–
GTGATGTCAGGTTTTC (sugars kkdddddddddkdkdk, PS)	–	27%	–
GTGATGTCAGGTTTTC (sugars kkdddddddddkekek, PS)	–	40%	–
GTGCAAAACCAGTACA (sugars k3 d10 k3, PS)	33%	–	–
GTGCAAGCCTCATTCA (sugars k3 d10 k3, PS)	–	19%	–
GTGCAGACCTGAATAG (sugars k3 d10 k3, PS)	14%	–	–
GTGCTCATGGCTGATA (sugars k3 d10 k3, PS)	–	24%	–
GTGCTTGCCAAGCCTA (sugars k3 d10 k3, PS)	–	27% and 36%	–
GTGGAAACGAGAACGC (sugars k3 d10 k3, PS)	3%	–	–
GTGGAACTCTAGTGTC (sugars k3 d10 k3, PS)	12%	–	–
GTGGACACTTTTAGAG (sugars k3 d10 k3, PS)	52%	–	–
GTGTAATGTAGGGATA (sugars k3 d10 k3, PS)	64%	–	–
GTGTCTAAAGTCCCAT (sugars k3 d10 k3, PS)	–	18% and 28%	–
GTGTGCTTGCCAAGCC (sugars kdddddddddkekeke, PS)	–	6% and 22%	–

Sequence	target mRNA inhibition (SK-MEL-28, 4 µM)	target mRNA inhibition (MM.1R, 1 µM)	further results
GTTAACAATATGCTTC (sugars k3 d10 k3, PS)	25%	–	–
GTTAAGTCCCATCTGT (sugars k3 d10 k3, PS)	40%	–	–
GTTACTCACGAGCACC (sugars k3 d10 k3, PS)	–	-17%	–
GTTCAAGACAAGGGTT (sugars k3 d10 k3, PS)	–	15%	–
GTTCACAACAGAGCTG (sugars k3 d10 k3, PS)	–	-16%	–
GTTCACGAAACACAGT (sugars k3 d10 k3, PS)	63%	–	–
GTTCAGTGTGTTGACC (sugars k3 d10 k3, PS)	–	30%	–
GTTCCAGGAGATATTA (sugars k3 d10 k3, PS)	52%	–	–
GTTCCTGTCACCTGGC (sugars k3 d10 k3, PS)	49%	–	–
GTTCTAGGGTCCTCCT (sugars k3 d10 k3, PS)	50%	–	–
GTTGAACCCATCTTGA (sugars k3 d10 k3, PS)	16%	–	–
GTTGACACAGGAGCCG (sugars k3 d10 k3, PS)	53%	–	–
GTTGGCTGGTCTTTGT (sugars kkdddddddddekeke, PS)	–	23%	–
GTTGTAAATGAGTCGG (sugars k2 d9 e3 k2, PS)	–	82%	target mRNA inhibition (H929, 0.00067 µM): 6%; target mRNA inhibition (H929, 0.002 µM): 21%; target mRNA inhibition (H929, 0.00667 µM): 45%; target mRNA inhibition (H929, 0.02 µM): 57%; target mRNA inhibition (H929, 0.04 µM): 13%; target mRNA inhibition (KMS11, 0.2 µM): 50% and 44%; target mRNA inhibition (MM.1R, 0.074 µM): 26%; target mRNA inhibition (MM.1R, 0.222 µM): 53%; target mRNA inhibition (MM.1R, 0.666 µM): 76%; target mRNA inhibition (MM.1R, 2 µM): 93%
GTTGTAAATGAGTCGG (sugars k3 d10 k3, PS)	87% and 81%	–	–
GTTTGTGAAGCATCCT (sugars k3 d10 k3, PS)	65%	–	–
GTTTTAAGAGGCGACT (sugars k3 d10 k3, PS)	33%	–	–
GTTTTTTGACTCAAGA (sugars k3 d10 k3, PS)	67%	–	–
TAAAAGAGGTGCTAGG (sugars k3 d10 k3, PS)	27%	–	–
TAAAAGGTTCCTGTCA (sugars k3 d10 k3, PS)	6%	–	–
TAAACAAGATGAATCC (sugars k3 d10 k3, PS)	44%	–	–
TAAACAGTGCCCAAGC (sugars k3 d10 k3, PS)	41%	–	–
TAAAGGAGTGCAGGAG (sugars k3 d10 k3, PS)	-7%	–	–
TAAATTCTAGTTTGCC (sugars k3 d10 k3, PS)	68%	–	–
